Like-named read-outs stand apart in the source and are kept apart here.
Key:
coagulation factor X = system: coagulation factor X; set-up: method as in Choi et al. (2015); conditions: ref Choi et al. (2015); cited from earlier work
human washed platelets [1] = experiment: Platelet aggregation assay (Chrono-Log aggregometer); format: cell-based; conditions: for IC50: Homo sapiens, Platelet, 10 min, 10 min incubation at 37°C
Description: Blood was collected from a median cubital vein using a 3.8% sodium citrate anticoagulation tube with a 1:9 dilution ratio. The platelets were washed using a previously described method with slight modification ([Babur et al., 2020]; [Uphaus et al., 2022]). The blood was centrifuged at room temperature at 300 × g for 10 min to separate platelet-rich plasma (PRP). PRP was added to 50 ng/mL of PGE1 and 5 mM EDTA, centrifuged at 2,000 × g for 2 min at room temperature, and the platelet precipitate was obtained after discarding the supernatant. The modified HEPES-Tyrode’s buffer (20 mM 4-(2-Hydroxyethyl)-1-piperazine ethane sulfonic acid [HEPES], pH 7.3, 129 mM NaCl, 2.9 mM KCl, 12 mM NaHCO3, 0.34 mM Na2HPO4, 20 mM HEPES, 5 mM D-Glucose, 1 mM MgCl2) was used to resuspend the platelets, added with 50 ng/mL PGE1 and 5 mM EDTA, and the platelets were washed by centrifugation at 2,000 ×g for 2 min at room temperature. The washed platelets (WP) were resuspended using modified HEPES-Tyrode’s buffer, and the platelet count was adjusted to 150–200 × 10^9/L.
Platelet aggregation and ATP release were detected using the Chrono-Log platelet aggregation instrument (Chrono-Log Corp., Havertown, Pennsylvania, United States), as previously reported ([Babur et al., 2020]). […] In addition, 1 mM CaCl2 and different platelet activators (ADP, collagen, and thrombin; Chrono-Log Corp., Havertown, Pennsylvania, United States; U46619, from Sigma, St. Louis, MO, United States; convulxin, sc-202554 from Santa Cruz Biotechnology, Santa Cruz, CA, United States) were added to each group before the start of the aggregation assay. For the ATP release experiments, the platelets were incubated with 50 ng/mL luciferin and D-luciferase (Cat No. 395; Chrono-Log Corp.) for 2 min before the addition of activators. The platelet aggregation and ATP release curves were traced during experiments.

rhGPVI = target: T1, rhGPVI (Homo sapiens, UniProt Q9HCN6); experiment: Solid phase binding assay (rhGPVI binding to immobilized collagen); conditions: rhGPVI 30 nM; collagen 5 μg/mL coated; read-out: IC50, inhibition of binding of rhGPVI to collagen
T1 construct: rhGPVI was expressed and purified according to the method reported in the literature; made in house
T1 sequence (Q9HCN6 21-203 limits assumed): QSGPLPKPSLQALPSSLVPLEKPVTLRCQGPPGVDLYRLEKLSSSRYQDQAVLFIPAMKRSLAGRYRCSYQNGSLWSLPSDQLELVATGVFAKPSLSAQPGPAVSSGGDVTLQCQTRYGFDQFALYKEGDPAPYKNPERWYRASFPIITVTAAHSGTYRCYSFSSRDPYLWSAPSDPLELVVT
Description: rhGPVI was expressed and purified according to the method reported in the literature ([Horii et al., 2006]). rhGPVI was cross-linked with 10 μg/mL of cross-linking antibody His Tag Horseradish Peroxidase-conjugated Antibody (Cat. MAB050H; R&D Systems, Minneapolis, MN, United States). Solid phase assays were performed based on previously described procedures ([Billiald et al., 2023]). Collagen (5 μg/mL prepared in PBS) was used to coat 96-well plates overnight at 4°C. Non-specific sites were closed by Superblock (Cat. 37580; Thermo Fisher Scientific, Waltham, MA, United States). […] 1-StepTM Ultra TMB-ELISA (Cat. 34022; Thermo Fisher Scientific, Waltham, MA, United States) was developed, and the reaction was stopped with a 2 M sulphuric acid solution. Absorbance values were read at 450 nm. At least three washes were performed with PBS between each of the above steps. Each spot was measured three times.

NOXs = experiment: NADPH oxidase (NOX) activity assay in platelet lysate; format: cell-based, human; conditions: convulxin (5 ng/mL)- and collagen (10 μg/mL)-induced; VAS2870 10 μM
Description: MDA, SOD, GPx, and NADPH oxidase activity were measured as previously described ([Krotz et al., 2002]; [Paul et al., 2019]; [Pan et al., 2021]). After incubation and activation, the reaction was stopped by adding 10 mM EGTA. The platelets were pelleted by centrifugation at 20,000 × g for 10 min at 4°C and resuspended in Tyrode’s buffer with 0.1% phosphatase and protease inhibitors (Cat No. 04906837001, Roche Applied Science, Penzberg, Germany; Cat No. P-8340, Sigma, St. Louis, MO, United States). The platelets were disrupted by passing them 10 times through a 29-gauge needle, followed by centrifugation at 2000 × g for 10 min at 4°C to separate the supernatant and precipitate. The detection of MDA, SOD, and GPx in the supernatant was performed according to the kit’s instructions for SOD (Cat No. BC0170, Solarbio Life Science, Beijing, China), MDA (Cat No. S0131S, Beyotime Institute of Biotechnology, Shanghai, China) and GPx (Cat No. S0056, Beyotime Institute of Biotechnology, Shanghai, China). In order to determine NADPH oxidase (NOX) activity, platelet lysate (12.5 μg) was incubated with 10 µM lucigenin and 0.5 mM NADPH at 37°C in the dark. The absorbance values were detected at 450 nm using a spectrophotometer Multiskan FC (ThermoFisher Scientific Inc., Waltham, MA, United States). Protein content was determined by the Bradford method.

human washed platelets [2] = experiment: Clot retraction experiment; format: cell-based; conditions: luteolin 100 μM; 0.1 U/mL thrombin
Description: Clot retraction experiments were completed using the previously reported method ([Zhang et al., 2015]). […] Then, 200 μL of WPs were placed in a siliconized glass tube with 1 mM CaCl2, 0.1 U/mL thrombin, and 10 µL PPP, mixed well, and left at 37°C. Pictures were taken every 5 min. The clot size was calculated using ImageJ software.

O=c1cc(-c2ccc(O)c(O)c2)oc2cc(O)cc(O)c12 [Luteolin]
coagulation factor X activity (coagulation factor X): effectively inhibits | effect on platelet aggregation (human washed platelets [1]; 25 μM luteolin, ADP (5 μM)-induced): no significant effect | effect on platelet aggregation (human washed platelets [1]; 25 μM luteolin, U46619 (3 μM)-induced): no significant effect | effect on platelet aggregation (human washed platelets [1]; 25 μM luteolin, thrombin (0.05 U/mL)-induced): no significant effect | effect on platelet aggregation (human washed platelets [1]; 100 μM luteolin, U46619-induced): significantly inhibited | IC50 (human washed platelets [1]; read-out: IC50, inhibition of platelet aggregation, convulxin (5 ng/mL)-induced): 8.66 µM | IC50 (human washed platelets [1]; collagen (10 μg/mL)-induced, read-out: IC50, inhibition of platelet aggregation): 4.81 µM | IC50 (rhGPVI): 5.49 µM | NOXs activity (NOXs): significantly decreased | thrombin-induced clot retraction (human washed platelets [2]): inhibited
